One data set has as its system B16BL6 melanoma cells. Description: metastasis of B16BL6 melanoma cells (lung metastatic deposits in mice). The data set is classed as in vivo, mouse. Conditions: BL6 cells injected into mice; irrespective of route or timing. As for the experimental part: BL6 cells were injected into mice and metastatic deposits in the lung were assessed after various treatments including route and timing, of administration.

The nature of another data set: water solubility. Format: physicochemical. To be noted: particularly at physiologic pH.
Data set [1] relates to 40 kD (or 47 kD) platelet protein. Description: phosphorylation of platelet protein on thrombin stimulation. Format: cell-based. An excerpt:
On thrombin stimulation, a 40 kD (or 47 kD) platelet protein is phosphorylated. […] While not wanting to be bound by their statement, the inventors believe that absence of phosphorylated 40 kD (or 47 kD) protein prevents platelet aggregation.

A further data set has as its system GMP-140. Description: GMP-140 expression in platelets (flow cytometry with mAb AC1.2). Format: cell-based. Conditions: platelets preincubated with compound; thrombin or PMA activation. As for the experimental part:
GMP-140 expression was determined by (i) flow cytometry with mAb AC1.2, which is directed to GMP-140 and obtained from Dr. Furie (Tufts Univ. Sch. Med., Boston, Mass.) and (ii) adhesion of HL60 cells on platelet-coated solid phase.
A suspension of platelets (1×10^8 /ml) in Tyrode buffer was preincubated with inhibitor at pH 7.2, 37° C., for 5 minutes, then supplemented with activator, either thrombin (final concentration 1 U/ml) or phorbol 12-myristate 13-acetate (PMA) (final concentration 10^-7 M), and then the mixture was incubated at 37° C. for 10 minutes. Platelets were fixed with an equal volume of 2% (w/v) paraformaldehyde in PBS and washed 2 times with PBS containing 1% (w/v) BSA.
The paraformaldehyde-fixed platelets were incubated with 50 μl of mAb AC1.2 (2.5 μg/ml) at room temperature for 30 minutes. […]
The platelets were analyzed in an Epics flow cytometer (Coulter Corp.) with suitable gating. To calculate the inhibitory effect of various reagents, the mean fluorescence intensity of resting platelets (obtained on incubation of platelets without activator) was subtracted from the value for the activated platelet sample.
(In general: Flow cytometry measures light scatter and fluorescence of single cells or particles in a stream.)

For the next data set, the system named is HL60 cells. Description: HL60 adhesion on activated platelet-coated solid phase. The data set is classed as cell-based, human. To be noted: thrombin-stimulated and PMA-stimulated platelets. As for the experimental part:
HL60 (a human promylelocytic cell line available from the ATCC under accession number CCL 240) adhesion on resting or activated platelet-coatedsolid phase was evaluated as follows. Each well of a 48-well plate (Costar Scientific, Cambridge, Mass.) was filled with a poly-L-lysine solution (100 μg/ml in PBS) and incubated for 1 hour. Each well then was washed with PBS and then 150 μl of PBS containing 6×10^7 resting or activated platelets were added to each well and the plate was incubated for 1 hour. Plates were centrifuged (300×g for 7 minutes) and incubated a further 30 minutes at room temperature. Bound platelets were fixed by addition of 0.1% (w/v) glutaraldehyde in PBS for 2 minutes at 4° C. Each well was washed with 10 mM glycine in PBS and plates were incubated with 5% (w/v) BSA containing 0.1% (w/v) sodium azide, 10 mM glycine in PBS for 1 hour at room temperature.

In the next data set the test system is erythrocyte. Description: erythrocyte metabolic activity under blood storage conditions. The data set is classed as cell-based. To be noted: in vitro, normal blood storage conditions; reduction of erythrocyte enzyme activity. An excerpt:
Similar results can be expected for leukocytes and platelets.

Data set [2] deals with neutrophils. Description: superoxide production in neutrophils (reduction of cytochrome C). Format: cell-based, human. As for the experimental part: Human neutrophils were obtained from normal male adults. Heparinized peripheral blood was mixed gently with an equal amount of 1% dextran solution in PBS in a 60 ml injection syringe. The mixture was allowed to sit vertically for 60 to 90 minutes at 37° C. The upper phase, which is rich in white blood cells, was mounted gently on the same volume of Ficoll-Paque (Pharmacia LKB, Uppsala, Sweden) in Falcon 2095 plastic test tubes (Becton Dickinson Labware, Lincoln Park, N.J.). Centrifugation at 450g for 30 min at 4° C. brought the neutrophils to the bottom of the tubes. The upper phase and interface, which contains lymphocytes, were removed carefully by aspiration.
Contaminating erythrocytes were removed from the cell pellet by hypotonic lysis by resuspending the cell pellet in ice-cold distilled water for 30 sec then adding an equal volume of ice-cold 1.8% NaCl solution. After centrifugation at 80g for 10 min, the cells were resuspended with a suitable buffer or media.
The final preparation consisted of more than 98% neutrophils, as determined by Wright-Giemsa staining. The suspension was stored at 4° C. and used within 3 hr.

For data set [3], the system named is neutrophils. Description: phagokinetic activity of neutrophils on gold sol-coated plates. The data set is classed as cell-based, human. An excerpt:
The phagokinetic activity of neutrophils on gold sol-coated plates can be determined by a technique essentially as taught in Albrecht-Buehler (Cell, 11, 395, 1977). […] The TMS-dependent inhibitory effect is reversed completely when the culture medium is replaced with TMS-free medium. Thus, the inhibitory effect of TMS on phagokinetic activity is not dependent on cytotoxicity.

Data set [4] has as its system neutrophils. Description: neutrophil trans-endothelial migration through HUVEC monolayer. Format: cell-based, human. Conditions: IL-1β-activated EC's; pre-treatment of neutrophils. As to the method: A characteristic of neutrophils is the ability to adhere to activated EC's and to migrate through the EC monolayer into the vascular or extravascular matrix. The effect of TMS on neutrophil interactions with EC's and their subsequent trans-endothelial migration thereof can be monitored in vitro using human umbilical endothelial cells (HUVEC's) (Luscinskas et al., J. Imm., 146, 1617, 1991). Neutrophils are added to a HUVEC monolayer and neutrophil-HUVEC interactions are assessed microscopically following fixation, embedding and staining of monolayer sections.
Under physiological conditions, neutrophils are able to migrate into the collagenous matrix through the EC monolayer. When EC's are activated with IL-1β in M199 medium for 4 hours, neutrophils migrate into the collagenous matrix within 90 minutes.

Data set [5] relates to neutrophils. Description: fMLP-enhanced 32P incorporation into PI, PIP and PIP2 in neutrophils. The data set is classed as cell-based, human. To be noted: fMLP 1 μM; pre-incubation of neutrophils. As for the experimental part:
Metabolic incorporation of [^32 P]sodium phosphate (4 mCi) into phosphatidylinositol (PI), phosphatidylinositol-4-phosphate (PIP) and phosphatidylinositol-4,5-bis-diphosphate (PIP2) is enhanced by chemotactic peptide fMLP (1 μM).

SMILES strings stand for the structures. Entries after “also recorded” stand apart in the source; their conditions may differ.

`CCCCCCCCCCCCC/C=C/C(O)C(CO)[N+](C)(C)C` (stereo not shown) [TMS, N,N,N-trimethylsphingosine]: the “lung colonization and tumor development” value with B16BL6 melanoma cells is “effective in suppressing”. In addition, in “water solubility”, the water solubility result is “highly water soluble”. For the same molecule, the “phosphorylation of the 40 kD (or 47 kD) platelet protein” value in data set [1] is “inhibits phosphorylation”. The GMP-140 expression entry in the data set on GMP-140 was “down-regulated or blocked; also recorded: inhibits GMP-140 expression”. Also, in the data set on HL60 cells, the HL60 cell binding entry is “inhibited strongly”. For the same molecule, the erythrocyte metabolic activity entry with erythrocyte is recorded as “retards erythrocyte metabolic activity”. Further, the “Superoxide production in neutrophils” value in the data set with neutrophils [2] is reported as “inhibited by TMS in a dose-dependent manner”. Also, in the data set with neutrophils [3], the Phagokinetic activity result is given as “suppressed significantly”. For the same molecule, in the data set with neutrophils [4], the Neutrophil migration result is given as “inhibited strongly”. The “fMLP-dependent enhancement of 32P incorporation into PI, PIP and PIP2” value with neutrophils [5] is given as “suppressed strongly”.

Values taken from patent US6031135A, “Trimethylsphingosine derivatives” (Oncomembrane, Inc., priority 1996, dated 2000).
